Assay results published in ChEMBL document CHEMBL4340547, “Synthesis and SAR development of quinoline analogs as novel P2X7 receptor antagonists” (Bioorg Med Chem Lett, 2019).
pIC50: −log10 of the molar value.

Assays:
[1] = Intrinsic clearance in rat liver microsomes; assay type: ADME, Microsome; conditions: read-out: CLH
[2] = target: T1, P2X purinoceptor 7 (Homo sapiens, UniProt Q99572); test: Antagonist activity at P2X7R in LPS-stimulated human THP1 cells assessed as inhibition of BzATP-induced IL-1beta release preincubated for 30 mins followed by BzATP stimulation and measured after 30 mins by sandwich ELISA
T1 sequence (Q99572 whole entry): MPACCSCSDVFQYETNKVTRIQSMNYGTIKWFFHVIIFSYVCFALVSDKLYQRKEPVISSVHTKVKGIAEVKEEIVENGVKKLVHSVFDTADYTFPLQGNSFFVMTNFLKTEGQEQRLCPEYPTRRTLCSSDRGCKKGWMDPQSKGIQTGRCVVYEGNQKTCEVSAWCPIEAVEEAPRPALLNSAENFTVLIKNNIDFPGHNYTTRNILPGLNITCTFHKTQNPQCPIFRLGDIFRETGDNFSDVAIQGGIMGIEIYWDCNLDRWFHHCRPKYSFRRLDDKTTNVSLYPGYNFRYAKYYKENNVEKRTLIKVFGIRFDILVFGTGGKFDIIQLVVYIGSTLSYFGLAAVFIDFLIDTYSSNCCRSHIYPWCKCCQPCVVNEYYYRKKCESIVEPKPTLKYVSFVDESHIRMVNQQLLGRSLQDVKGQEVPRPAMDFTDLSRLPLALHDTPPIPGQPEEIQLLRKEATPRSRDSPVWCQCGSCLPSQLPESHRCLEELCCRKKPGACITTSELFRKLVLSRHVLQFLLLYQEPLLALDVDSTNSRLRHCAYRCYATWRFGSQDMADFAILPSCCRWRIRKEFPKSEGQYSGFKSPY

[3] = target: T1, P2X purinoceptor 7; test: Antagonist activity at human P2X7 receptor expressed in HEK293 cells assessed as inhibition of BzATP-induced YO PRO dye uptake preincubated for 20 mins followed by YO PRO dye and BzATP addition measured after 30 mins by fluorescence assay; assay type: cell-based
[4] = tested on: MDR; test: Apparent permeability across apical to basolateral side in MDCK cells expressing MDR; assay type: ADME, cell-based, Canis lupus familiaris; conditions: dog, MDCK-MDR1
[5] = Intrinsic clearance in human liver microsomes; assay type: ADME, Microsome; conditions: read-out: CLH
[6] = target: T2, P2X purinoceptor 7 (Mus musculus, UniProt Q9Z1M0); test: Antagonist activity at mouse P2X7 receptor assessed as inhibition of BzATP-induced YO PRO dye uptake preincubated for 20 mins followed by YO PRO dye and BzATP addition measured after 30 mins by fluorescence assay
T2 sequence (Q9Z1M0 whole entry): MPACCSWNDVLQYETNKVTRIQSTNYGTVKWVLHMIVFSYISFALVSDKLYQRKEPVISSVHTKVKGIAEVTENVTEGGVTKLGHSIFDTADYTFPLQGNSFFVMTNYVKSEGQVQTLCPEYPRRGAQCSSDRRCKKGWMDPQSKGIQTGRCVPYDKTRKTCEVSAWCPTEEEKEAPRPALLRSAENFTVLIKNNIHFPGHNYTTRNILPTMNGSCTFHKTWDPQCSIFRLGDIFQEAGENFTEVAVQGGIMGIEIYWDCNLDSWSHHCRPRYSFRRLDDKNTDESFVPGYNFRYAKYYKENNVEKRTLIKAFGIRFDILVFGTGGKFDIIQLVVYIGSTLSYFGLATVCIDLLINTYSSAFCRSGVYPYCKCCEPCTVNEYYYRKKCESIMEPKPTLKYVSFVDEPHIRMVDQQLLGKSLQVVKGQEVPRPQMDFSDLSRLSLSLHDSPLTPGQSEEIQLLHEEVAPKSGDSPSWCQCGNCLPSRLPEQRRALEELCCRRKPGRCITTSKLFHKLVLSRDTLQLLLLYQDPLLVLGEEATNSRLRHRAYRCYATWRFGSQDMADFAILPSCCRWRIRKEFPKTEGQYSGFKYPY

[7] = Intrinsic clearance in mouse liver microsomes; assay type: ADME, Microsome; conditions: read-out: CLH
[8] = tested on: MDR; test: Efflux ratio of apparent permeability in MDCK cells expressing MDR; assay type: ADME, cell-based, Canis lupus familiaris; conditions: dog, MDCK-MDR1
[9] = target: T3, P2X purinoceptor 7 (Rattus norvegicus, UniProt Q64663); test: Antagonist activity at rat P2X7 receptor assessed as inhibition of BzATP-induced YO PRO dye uptake preincubated for 20 mins followed by YO PRO dye and BzATP addition measured after 30 mins by fluorescence assay
T3 sequence (Q64663 whole entry): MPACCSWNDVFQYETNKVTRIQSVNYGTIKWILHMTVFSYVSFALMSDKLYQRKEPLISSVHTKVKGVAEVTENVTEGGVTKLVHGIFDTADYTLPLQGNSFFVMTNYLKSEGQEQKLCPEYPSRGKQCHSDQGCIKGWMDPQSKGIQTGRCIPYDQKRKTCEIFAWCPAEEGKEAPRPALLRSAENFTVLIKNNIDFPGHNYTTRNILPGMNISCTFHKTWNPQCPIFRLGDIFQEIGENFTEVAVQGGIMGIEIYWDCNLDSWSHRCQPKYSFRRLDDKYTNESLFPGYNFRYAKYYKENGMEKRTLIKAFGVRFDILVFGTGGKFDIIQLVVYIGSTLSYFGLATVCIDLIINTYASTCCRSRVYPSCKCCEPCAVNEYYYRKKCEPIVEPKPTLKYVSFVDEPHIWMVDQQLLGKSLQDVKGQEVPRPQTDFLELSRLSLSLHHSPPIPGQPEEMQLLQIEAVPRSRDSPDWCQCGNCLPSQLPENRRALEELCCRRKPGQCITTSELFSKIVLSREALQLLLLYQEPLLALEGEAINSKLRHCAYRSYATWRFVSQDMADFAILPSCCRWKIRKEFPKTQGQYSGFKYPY

[10] = AUC in mouse brain at 5 mg/kg, po; assay type: ADME, organism-based
[11] = Dose normalized AUC in mouse at 0.2 mg/kg, iv; assay type: ADME, organism-based; conditions: in vivo
[12] = Oral bioavailability in mouse at 0.5 mg/kg; assay type: ADME, organism-based; conditions: in vivo
[13] = AUC in mouse plasma at 5 mg/kg, po; assay type: ADME, organism-based
[14] = Dose normalized Cmax in mouse at 0.2 mg/kg, iv; assay type: ADME, organism-based; conditions: in vivo
[15] = Volume of distribution in mouse at 0.2 mg/kg, iv or 0.5 mg/kg, po; assay type: ADME, organism-based; conditions: in vivo
[16] = Clearance in mouse at 0.2 mg/kg, iv or 0.5 mg/kg, po; assay type: ADME, organism-based; conditions: in vivo
[17] = Protein binding in mouse plasma assessed as unbound fraction; assay type: ADME, cell-free
[18] = Protein binding in rat plasma; assay type: ADME, cell-free; conditions: read-out: PPB
[19] = Protein binding in mouse plasma assessed as unbound fraction at 5 mg/kg, po; assay type: ADME, organism-based
[20] = Dose normalized AUC in mouse at 0.5 mg/kg, po; assay type: ADME, organism-based; conditions: in vivo
[21] = Dose normalized Cmax in mouse at 0.5 mg/kg, po; assay type: ADME, organism-based; conditions: in vivo
[22] = Terminal half life in mouse at 0.2 mg/kg, iv or 0.5 mg/kg, po; assay type: ADME, organism-based; conditions: in vivo, read-out: beta t1/2 (converted)
[23] = Unbound brain to plasma concentration ratio in mouse at 5 mg/kg, po; assay type: ADME, organism-based; conditions: read-out: K(p,uu,brain)
[24] = Protein binding in rat plasma assessed as unbound fraction; assay type: ADME, cell-free
[25] = Protein binding in human plasma; assay type: ADME, cell-free; conditions: read-out: PPB
[26] = Protein binding in human plasma assessed as unbound fraction; assay type: ADME, cell-free
[27] = Protein binding in mouse plasma; assay type: ADME, cell-free; conditions: read-out: PPB
[28] = Protein binding in mouse brain assessed as unbound fraction at 5 mg/kg, po; assay type: ADME, organism-based
[29] = target: Voltage-gated inwardly rectifying potassium channel KCNH2 (Homo sapiens, UniProt Q12809); test: Activity at human ERG
Voltage-gated inwardly rectifying potassium channel KCNH2, sequence (Q12809 whole entry): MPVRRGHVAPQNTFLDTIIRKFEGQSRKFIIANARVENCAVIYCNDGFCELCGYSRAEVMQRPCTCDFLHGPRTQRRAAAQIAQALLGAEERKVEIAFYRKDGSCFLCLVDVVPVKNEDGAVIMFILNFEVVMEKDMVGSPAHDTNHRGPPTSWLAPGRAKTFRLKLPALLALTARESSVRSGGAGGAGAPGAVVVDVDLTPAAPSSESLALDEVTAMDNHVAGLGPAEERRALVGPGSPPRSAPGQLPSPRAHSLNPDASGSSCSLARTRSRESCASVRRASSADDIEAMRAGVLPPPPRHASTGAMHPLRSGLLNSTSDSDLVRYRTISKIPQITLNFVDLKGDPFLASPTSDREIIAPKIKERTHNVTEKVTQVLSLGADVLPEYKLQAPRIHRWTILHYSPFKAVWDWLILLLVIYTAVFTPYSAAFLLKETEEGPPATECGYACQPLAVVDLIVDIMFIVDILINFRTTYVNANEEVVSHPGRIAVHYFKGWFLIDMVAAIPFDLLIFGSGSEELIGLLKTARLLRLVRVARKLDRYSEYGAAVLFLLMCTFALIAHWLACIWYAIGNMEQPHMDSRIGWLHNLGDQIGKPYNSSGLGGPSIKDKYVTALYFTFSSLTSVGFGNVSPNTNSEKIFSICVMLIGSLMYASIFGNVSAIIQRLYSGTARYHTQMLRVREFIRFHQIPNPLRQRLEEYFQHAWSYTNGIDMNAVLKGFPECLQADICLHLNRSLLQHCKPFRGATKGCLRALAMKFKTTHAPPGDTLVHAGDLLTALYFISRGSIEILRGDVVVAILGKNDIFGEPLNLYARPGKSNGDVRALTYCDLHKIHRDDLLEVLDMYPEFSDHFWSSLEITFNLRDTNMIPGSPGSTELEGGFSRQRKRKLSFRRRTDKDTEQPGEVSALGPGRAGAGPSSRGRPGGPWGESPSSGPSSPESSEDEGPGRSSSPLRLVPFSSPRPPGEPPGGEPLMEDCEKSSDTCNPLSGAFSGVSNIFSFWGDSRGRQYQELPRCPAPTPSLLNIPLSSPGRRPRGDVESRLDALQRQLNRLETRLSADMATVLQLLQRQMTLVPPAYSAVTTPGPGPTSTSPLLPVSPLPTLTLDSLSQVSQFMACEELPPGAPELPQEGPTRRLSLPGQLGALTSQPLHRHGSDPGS

| SMILES | microsomal CLint [1] | pIC50 [2] | pIC50 [3] | Papp A→B [4] | microsomal CLint [5] | pIC50 [6] | microsomal CLint [7] | efflux ratio [8] | pIC50 [9] | further results |
| --- | --- | --- | --- | --- | --- | --- | --- | --- | --- | --- |
| O=C(NCC1CCCC(F)(F)C1)c1c(Cl)ccc2nc(N3CC[C@@H](F)C3)ccc12 (some centres not stated) | 102 µL/min/mg | 6.93 | 8.31 | 16.4 ×10⁻⁶ cm/s | 41 µL/min/mg | 5.70 | 102 µL/min/mg | 1.8 | – | – |
| C[C@H]1CCC[C@@](O)(CNC(=O)c2c(Cl)ccc3nc(N4CC[C@@H](F)C4)ccc23)C1 | 23 µL/min/mg | 7.61 | 8.35 | 8.9 ×10⁻⁶ cm/s | 21 µL/min/mg | 5.85 | 65 µL/min/mg | 4.3 | 6.19 | – |
| O=C(NCC1(O)CCCC(F)(F)C1)c1c(Cl)ccc2nc(N3CC[C@H](F)C3)ccc12 (some centres not stated) | 23 µL/min/mg | 7.57 | 7.74 | 8.9 to 9 ×10⁻⁶ cm/s | 20 µL/min/mg | 5.17 | 34 µL/min/mg | 6.3 | 5.03 | AUC [10]: 12.6 ng·h/mL; AUC/dose [11]: 451 ng·h/mL; bioavailability [12]: 32%; AUC [13]: 136 ng·h/mL; Cmax/dose [14]: 738 ng/mL; Vd [15]: 1.19 L/kg; clearance [16]: 36.8 mL/min/kg; fraction unbound [17]: 0.079; fraction unbound [18]: 0.03 to 0.1; fraction unbound [19]: 0.079; AUC/dose [20]: 143 ng·h/mL; Cmax/dose [21]: 160 ng/mL; half-life [22]: 25.8 min; Kp uu [23]: 0.13; fraction unbound [24]: 0.089; fraction unbound [25]: 0.03 to 0.1; fraction unbound [26]: 0.098; fraction unbound [27]: 0.03 to 0.1; fraction unbound [28]: 0.11; Activity [29]: > 30 µM |
| C[C@@H]1CCC[C@@](O)(CNC(=O)c2c(Cl)ccc3nc(N4CC[C@@H](C(C)(C)O)C4)ccc23)C1 | 10 µL/min/mg | 8.13 | 7.85 | 1.5 ×10⁻⁶ cm/s | 75 µL/min/mg | 5.43 | 68 µL/min/mg | 34 | 6.89 | – |

Further compounds by rising pIC50 [2], results first:

| microsomal CLint [1] | pIC50 [2] | pIC50 [3] | Papp A→B [4] | microsomal CLint [5] | pIC50 [6] | microsomal CLint [7] | efflux ratio [8] | pIC50 [9] | SMILES | further results |
| --- | --- | --- | --- | --- | --- | --- | --- | --- | --- | --- |
| 21 µL/min/mg | 6.96 | 8.09 | 14.1 to 14.4 ×10⁻⁶ cm/s | 10 µL/min/mg | 5.69 | 49 µL/min/mg | 0.85 | 5.29 | O=C(NCC1CCC(F)(F)CC1)c1c(Cl)ccc2nc(N3CC[C@H](F)C3)ccc12 | AUC [10]: 30.9 ng·h/mL; AUC/dose [11]: 238 ng·h/mL; bioavailability [12]: 31%; AUC [13]: 84.7 ng·h/mL; Cmax/dose [14]: 545 ng/mL; Vd [15]: 1.81 L/kg; clearance [16]: 69.8 mL/min/kg; fraction unbound [17]: 0.03; fraction unbound [18]: 0.03 to 0.1; fraction unbound [19]: 0.03; AUC/dose [20]: 72.9 ng·h/mL; Cmax/dose [21]: 75.1 ng/mL; half-life [22]: 28.8 min; Kp uu [23]: 0.37; fraction unbound [24]: 0.041; fraction unbound [25]: 0.03 to 0.1; fraction unbound [26]: 0.055; fraction unbound [27]: 0.03 to 0.1; fraction unbound [28]: 0.03; Activity [29]: 30 µM |
| 31 µL/min/mg | 7.44 | 7.72 | 6.8 ×10⁻⁶ cm/s | 50 µL/min/mg | 5.32 | 48 µL/min/mg | 8.7 | 5.37 | O=C(NC[C@]1(O)CCCC(F)(F)C1)c1c(Cl)ccc2nc(N3CC[C@@H](F)C3)ccc12 | – |
| 32 µL/min/mg | 8.22 | 8.44 | 1.4 ×10⁻⁶ cm/s | 44 µL/min/mg | 5.70 | 52 µL/min/mg | 39 | 6.26 | C[C@@H]1CCC[C@@](O)(CNC(=O)c2c(Cl)ccc3nc(N4CCC(N(C)C)C4)ccc23)C1 (some centres not stated) | – |
